Assay results as given in patent publication US10052320B2, “Substituted quinoxalines as FGFR kinase inhibitors” (ASTEX THERAPEUTICS LIMITED, priority 2011, dated 2018).

Columns and labels:
FGFR1 (h) = FGFR1 (h) (Homo sapiens, UniProt P11362); test: FGFR1 (enzymatic assay), TR-FRET; type: biochemical; conditions: read-out: FGFR 1 pIC50 (converted)
Procedure: (§1) In a final reaction volume of 30 μL, FGFR1 (h) (25 ng/ml) was incubated with 50 mM HEPES pH 7.5, 6 mM MnCl2, 1 mM DTT, 0.1 mM Na3VO4, 0.01% Triton-X-100, 500 nM Btn-Flt3 and 5 μM ATP in the presence of compound (1% DMSO final). […] Time-Resolved Fluorescence Resonance Energy Transfer (TR-FRET) signal (ex340 nm. Em 620 nm, em 655 nm) was measured afterwards and results are expressed in RFU (Relative Fluorescence Units).

FGFR2 (h) = FGFR2 (h) (Homo sapiens, UniProt P21802); test: FGFR2 (enzymatic assay), TR-FRET; type: biochemical; conditions: read-out: FGFR 2 pIC50 (converted)
Procedure: as §1, with “μL, FGFR2” for “μL, FGFR1”, “(h) (150” for “(h) (25”, “and 0.4” for “and 5”, “in” for “in RFU”

FGFR3 (h) = FGFR3 (h) (Homo sapiens, UniProt P22607); test: FGFR3 (enzymatic assay), TR-FRET; type: biochemical; conditions: read-out: FGFR 3 pIC50 (converted)
Procedure: as §1, with “μL, FGFR3” for “μL, FGFR1”, “(h) (40” for “(h) (25”, “and 25” for “and 5”

[1] = test system: Ba/F3-FGFR1-transfected cells in the presence of 10 ng/ml murine IL3; test: Ba/F3-FGFR1 (plus IL3) cellular proliferation counterscreen, Alamar Blue; type: cell-based; conditions: plus IL3, 384 well; for IC50: Mus musculus, read-out: BAF3-FGFR 1 (PLUS IL3) 384 well pIC50 (converted)
Procedure, shortened: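 Compound-treated FGFR1-transfected Ba/F3 cells were cultured for 24 h (37 °C, 5% CO2) in RPMI-1640 with 10% FBS, with 10 ng/ml murine IL3 added for the counterscreen only. Viability was read as resazurin fluorescence (540/590 nm) after a further 4 h incubation with Alamar Blue.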

[2] = test system: Ba/F3-KDR-transfected cells in the presence of 10 ng/ml murine IL3; test: Ba/F3-KDR (plus IL3) cellular proliferation counterscreen, Alamar Blue; type: cell-based; conditions: plus 10 ng/ml murine IL3; for IC50: Mus musculus, read-out: BAF3-KDR (PLUS IL3) 384 well pIC50 (converted)
Procedure, shortened: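 Readout is resazurin (Alamar Blue) fluorescence, ex 540/em 590 nm, after 4 h, following 24 h compound exposure of KDR-transfected Ba/F3 cells at 37° C, 5% CO2 in 10% FBS RPMI. Plus-IL3 arm adds 10 ng/ml murine IL3; otherwise same conditions.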

Chain of FGFR3 (h) (P22607 23-806): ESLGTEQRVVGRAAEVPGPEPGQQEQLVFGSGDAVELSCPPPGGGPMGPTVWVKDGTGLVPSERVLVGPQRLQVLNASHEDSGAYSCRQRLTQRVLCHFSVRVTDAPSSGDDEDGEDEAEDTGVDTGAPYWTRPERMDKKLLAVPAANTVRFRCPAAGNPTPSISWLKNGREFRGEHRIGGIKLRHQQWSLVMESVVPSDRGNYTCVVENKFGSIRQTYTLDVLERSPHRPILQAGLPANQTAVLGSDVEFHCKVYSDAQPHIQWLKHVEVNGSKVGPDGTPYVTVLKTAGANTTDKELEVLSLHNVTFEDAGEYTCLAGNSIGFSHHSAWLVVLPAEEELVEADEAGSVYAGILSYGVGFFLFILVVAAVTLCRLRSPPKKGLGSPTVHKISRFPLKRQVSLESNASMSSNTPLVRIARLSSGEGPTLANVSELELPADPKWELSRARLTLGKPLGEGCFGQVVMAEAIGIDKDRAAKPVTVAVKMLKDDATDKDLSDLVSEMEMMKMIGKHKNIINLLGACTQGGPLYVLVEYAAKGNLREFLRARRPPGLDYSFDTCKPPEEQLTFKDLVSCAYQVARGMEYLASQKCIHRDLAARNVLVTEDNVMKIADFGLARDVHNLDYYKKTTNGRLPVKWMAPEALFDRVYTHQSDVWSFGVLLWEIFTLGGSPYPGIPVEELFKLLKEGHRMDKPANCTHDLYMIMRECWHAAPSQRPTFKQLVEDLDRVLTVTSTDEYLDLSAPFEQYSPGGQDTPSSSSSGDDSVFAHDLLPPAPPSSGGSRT
Chain of FGFR2 (h) (P21802 22-821): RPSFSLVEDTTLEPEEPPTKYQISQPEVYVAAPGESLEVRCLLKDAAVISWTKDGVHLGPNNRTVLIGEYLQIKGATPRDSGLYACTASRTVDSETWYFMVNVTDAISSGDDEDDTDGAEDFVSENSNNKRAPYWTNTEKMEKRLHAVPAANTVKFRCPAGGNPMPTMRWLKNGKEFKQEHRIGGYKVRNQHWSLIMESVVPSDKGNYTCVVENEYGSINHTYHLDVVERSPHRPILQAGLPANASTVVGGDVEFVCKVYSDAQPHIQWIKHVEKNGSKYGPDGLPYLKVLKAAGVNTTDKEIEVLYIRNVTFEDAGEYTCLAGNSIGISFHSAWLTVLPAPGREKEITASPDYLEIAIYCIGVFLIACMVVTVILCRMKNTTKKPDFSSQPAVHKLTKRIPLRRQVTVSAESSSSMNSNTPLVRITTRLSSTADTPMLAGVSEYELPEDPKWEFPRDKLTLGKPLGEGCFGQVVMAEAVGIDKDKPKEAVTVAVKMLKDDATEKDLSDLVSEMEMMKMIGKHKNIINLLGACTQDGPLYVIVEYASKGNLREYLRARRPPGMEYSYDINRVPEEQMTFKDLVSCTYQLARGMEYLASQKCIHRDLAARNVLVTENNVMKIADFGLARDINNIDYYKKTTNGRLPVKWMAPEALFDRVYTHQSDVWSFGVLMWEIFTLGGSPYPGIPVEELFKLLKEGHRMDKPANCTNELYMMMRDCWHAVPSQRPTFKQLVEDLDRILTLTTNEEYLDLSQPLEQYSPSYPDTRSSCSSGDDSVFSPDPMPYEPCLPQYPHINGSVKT
Chain of FGFR1 (h) (P11362 22-822): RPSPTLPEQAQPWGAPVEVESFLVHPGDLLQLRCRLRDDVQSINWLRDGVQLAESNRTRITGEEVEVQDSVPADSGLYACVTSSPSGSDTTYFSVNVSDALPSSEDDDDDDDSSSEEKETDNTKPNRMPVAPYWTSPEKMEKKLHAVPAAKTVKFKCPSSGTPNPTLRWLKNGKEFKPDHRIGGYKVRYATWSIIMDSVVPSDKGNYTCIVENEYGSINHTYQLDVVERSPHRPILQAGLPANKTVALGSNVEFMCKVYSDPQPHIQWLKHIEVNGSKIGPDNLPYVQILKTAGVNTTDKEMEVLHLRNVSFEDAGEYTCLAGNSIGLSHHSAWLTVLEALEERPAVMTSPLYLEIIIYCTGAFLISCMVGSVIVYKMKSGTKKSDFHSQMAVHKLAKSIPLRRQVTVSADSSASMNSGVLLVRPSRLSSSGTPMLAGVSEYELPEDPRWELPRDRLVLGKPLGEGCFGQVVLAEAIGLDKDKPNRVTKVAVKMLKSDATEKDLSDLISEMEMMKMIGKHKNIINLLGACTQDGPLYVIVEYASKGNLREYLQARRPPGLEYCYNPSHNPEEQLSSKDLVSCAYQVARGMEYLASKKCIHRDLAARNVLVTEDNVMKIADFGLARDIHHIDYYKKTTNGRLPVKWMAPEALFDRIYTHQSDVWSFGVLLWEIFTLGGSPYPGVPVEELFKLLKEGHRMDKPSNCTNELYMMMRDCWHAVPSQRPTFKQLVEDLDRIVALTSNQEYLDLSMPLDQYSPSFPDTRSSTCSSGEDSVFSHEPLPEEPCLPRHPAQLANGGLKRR

IC50 (FGFR1 (h)) [nM]	IC50 (FGFR2 (h)) [nM]	IC50 (FGFR3 (h)) [nM]	Structure (SMILES)	IC50 [1] [nM]	IC50 [2] [nM]	BAF3-FGFR 1 (PLUS IL3) 384 well pIC50 [1]	BAF3-KDR (PLUS IL3) 384 well pIC50 [2]
3.72	8.91	11	COc1cc(OC)cc(N(Cc2cccc(CN)n2)c2ccc3ncc(-c4ccc(N)nc4)nc3c2)c1 [Compound 51]	> 10000	> 10000	–	–
–	–	–	COc1cc(OC)cc(N(CC(OC(C)=O)C(F)(F)F)c2ccc3ncc(-c4cccnc4)nc3c2)c1 (single isomer, unassigned) [Compound 45]	> 10000	–	–	–
7.24	10.7	3.24	CNc1ccc(-c2cnc3ccc(N(CCCO)c4cc(OC)cc(OC)c4)cc3n2)cn1 [Compound 116]	> 10000	> 10000	–	–
2.45	4.07	3.31	COc1cc(OC)cc(N(CCCO)c2ccc3ncc(-c4ccc(N5CCNCC5)nc4)nc3c2)c1 [Compound 48]	~5250	5250	–	–
1.17	3.72	5.89	COc1cc(OC)cc(N(CCNC(C)C)c2ccc3ncc(-c4ccccc4)nc3c2)c1 [Compound 121]	–	–	–	–
6.92	–	3.39	COc1cc(OC)cc(N(CCCO)c2ccc3ncc(-c4ccc(N5CCOCC5)nc4)nc3c2)c1 [Compound 124]	> 10000	> 10000	–	–
0.457	2.63	2.34	COc1cc(OC)cc(N(CCNC(C)C)c2ccc3ncc(-c4ccn(C)c4)nc3c2)c1 [Compound 8]	> 10000	–	–	–
468	251	282	CNC(=O)c1cc(-c2cnc3ccc(N(CCN4CCCC4=O)c4cc(OC)cc(OC)c4)cc3n2)ccn1 [Compound 25]	> 10000	–	–	–
28.2	40.7	13.8	COc1cc(OC)cc(N(CC2CC2)c2ccc3ncc(-n4cnc(CO)c4)nc3c2)c1 [Compound 105]	–	–	–	–
182	135	33.9	COc1cc(OC)cc(N(CCCO)c2ccc3ncc(-c4ccnc(NC(=O)OC(C)(C)C)c4)nc3c2)c1 [Compound 128]	> 10000	> 10000	–	–
26.3	23.4	9.77	COc1cc(OC)cc(N(CCO)c2ccc3ncc(-c4ccc(OC)nc4)nc3c2)c1 [Compound 111]	> 10000	> 10000	–	–
2.14	2.45	4.47	COc1cc(OC)cc(N(CCNC(C)C)c2ccc3ncc(-c4ccncc4)nc3c2)c1 [Compound 12]	> 10000	> 10000	–	–
18.6	25.7	14.5	COc1cc(OC)cc(N(CCO)c2ccc3ncc(-c4ccnc(C(=O)NCCCN)c4)nc3c2)c1 [Compound 123]	> 10000	> 10000	–	–
2.75	5.89	10.2	COc1cc(OC)cc(N(CCNC(C)C)c2ccc3ncc(-c4cccnc4)nc3c2)c1 [Compound 10]	> 10000	–	–	–
85.1	45.7	33.9	CNC(=O)c1cc(-c2cnc3ccc(N(CCNCC(F)(F)F)c4cc(OC)cc(OC)c4)cc3n2)ccn1 [Compound 113]	–	–	–	–
8.13	14.1	4.47	COc1cc(OC)cc(N(CCO)c2ccc3ncc(-c4ccncc4)nc3c2)c1 [Compound 11]	> 10000	> 10000	–	–
–	–	–	COc1cc(OC)cc(N(CC(OC(C)=O)C(F)(F)F)c2ccc3ncc(-c4cccnc4)nc3c2)c1 (single isomer, unassigned) [Compound 75]	–	–	<5	<5
7.76	19.5	10	COCCCN(c1cc(OC)cc(OC)c1)c1ccc2ncc(-c3ccn(C)c3)nc2c1 [Compound 3]	> 10000	> 10000	–	–
10.2	5.5	10	CNCCN(c1cc(OC)cc(OC)c1)c1ccc2ncc(-c3ccc(NC(=O)OC(C)(C)C)nc3)nc2c1 [Compound 81]	–	–	–	–

IC50 (FGFR1 (h)) [nM]	IC50 (FGFR2 (h)) [nM]	IC50 (FGFR3 (h)) [nM]	Structure (SMILES)	IC50 [1] [nM]	IC50 [2] [nM]	BAF3-FGFR 1 (PLUS IL3) 384 well pIC50 [1]	BAF3-KDR (PLUS IL3) 384 well pIC50 [2]
7.24	11.5	4.37	COc1cc(OC)cc(N(CC(O)CO)c2ccc3ncc(-c4ccc(N)nc4)nc3c2)c1 (stereo not drawn) [Compound 74]	> 10000	> 10000	–	–
–	–	–	COc1cc(OC)cc(N(CC(O)C(F)(F)F)c2ccc3ncc(-c4cccnc4)nc3c2)c1 (single isomer, unassigned) [Compound 54]	–	–	<5	<5
83.2	46.8	37.2	CNC(=O)c1cc(-c2cnc3ccc(N(CCCNCC(F)(F)F)c4cc(OC)cc(OC)c4)cc3n2)ccn1 [Compound 122]	> 10000	–	–	–
27.5	17.4	21.4	COc1cc(OC)cc(N(CC2CO2)c2ccc3ncc(-c4ccc(N)nc4)nc3c2)c1 (stereo not drawn) [Compound 110]	> 10000	–	–	–
19.5	33.1	17.8	COc1cc(OC)cc(N(CCCO)c2ccc3ncc(-c4ccnc(C(=O)NCCCCN)c4)nc3c2)c1 [Compound 126]	–	–	–	–
15.8	13.5	4.79	COc1cc(OC)cc(N(CCCO)c2ccc3ncc(-c4ccc(C)nc4)nc3c2)c1 [Compound 115]	–	–	–	–
3.09	4.07	2.09	COc1cc(OC)cc(N(CCCO)c2ccc3ncc(-c4ccnc(N)c4)nc3c2)c1 [Compound 66]	> 10000	–	–	–
257	363	331	COc1cc(OC)cc(N(CCCNCC(F)(F)F)c2ccc3ncc(-c4ccc(N(C)C(=O)OC(C)(C)C)nc4)nc3c2)c1 [Compound 127]	> 10000	> 10000	–	–
–	–	–	COc1cc(OC)cc(N(CC(O)C(F)(F)F)c2ccc3ncc(-c4cccnc4)nc3c2)c1 (single isomer, unassigned) [Compound 53]	> 10000	–	–	–
34.7	309	81.3	COc1cc(OC)cc(N(CCCO)c2ccc3ncc(-c4ccc(N(C)C(=O)OC(C)(C)C)nc4)nc3c2)c1 [Compound 125]	–	–	–	–
10	17	4.68	COc1cc(OC)cc(N(CCO)c2ccc3ncc(-c4cccnc4)nc3c2)c1 [Compound 9]	> 10000	> 10000	–	–
398	912	~347	CNC(=O)OCCN(c1cc(OC)cc(OC)c1)c1ccc2ncc(-c3ccc(NC(=O)OC(C)(C)C)nc3)nc2c1 [Compound 80]	> 10000	–	–	–
12.6	22.9	19.1	COc1cc(OC)cc(N(CCCO)c2ccc3ncc(-c4ccnc(C(=O)NCCCN)c4)nc3c2)c1 [Compound 33]	> 10000	–	–	–
5.43	5.82	3.02	COc1cc(OC)cc(N(CCO)c2ccc3ncc(-c4ccc(N)nc4)nc3c2)c1 [Compound 106]	–	–	–	–
1.23	2.11	3.2	COc1cc(OC)cc(N(CCNC(C)C)c2ccc3ncc(-c4ccc(N)nc4)nc3c2)c1 [Compound 17]	~7760	–	–	–
8.91	15.1	3.98	COc1cc(OC)cc(N(CCO)c2ccc3ncc(-c4ccccc4)nc3c2)c1 [Compound 120]	> 10000	–	–	–
16.2	6.31	11.7	CNC(=O)c1cc(-c2cnc3ccc(N(CCN4CCCC4CO)c4cc(OC)cc(OC)c4)cc3n2)ccn1 (stereo not drawn) [Compound 109]	–	–	–	–
6.17	5.62	9.55	CNC(=O)c1cc(-c2cnc3ccc(N(CCNC(C)C)c4cc(OC)cc(OC)c4)cc3n2)ccn1 [Compound 14]	~7080	–	–	–
